Test results: US20260138948A1, “N-SUBSTITUTED INDOLES AS 5-HYDROXYTRYPTAMINE (5-HT) SEROTONIN RECEPTOR AGONISTS AND ANTAGONISTS” (Terran Biosciences Inc., priority 2021, published 2026)

Columns and labels:
5-HT2A receptor [1] = target: T1, 5-HT2A receptor (Homo sapiens, UniProt P28223); test: Calcium mobilization assay, agonist format, 5-HT2A; format: cell-based; details: % activity relative to control ligand, read-out: 5-HT2A agonist efficacy @10 µM
T1 construct: host or cells: unnamed cell lines
Procedure: (§1) Protocol—in vitro testing at select 5-hydroxytryptamine (5-HT; serotonin) receptors was conducted.
(§2) • 1. Cell lines were expanded from freezer stocks according to standard procedures. • 2. Cells were seeded in a total volume of 20 μL into black-walled, clear-bottom, Poly-D-lysine coated 384-well microplates and incubated at 37° C. for the appropriate time prior to testing.
(§3) • 1. Assays were performed in 1× Dye Loading Buffer consisting of 1× Dye, 1× Additive A and • 2.5 mM Probenecid in HBSS/20 mM Hepes. Probenicid was prepared fresh. • 2. Cells were loaded with dye prior to testing. Media was aspirated from cells and replaced with 20 μL Dye Loading Buffer. • 3. Cells were incubated for 30-60 minutes at 37° C.
(§4) • 1. For agonist determination, cells were incubated with sample to induce response. • 2. After dye loading, cells were removed from the incubator and 10 μL HBSS/20 mM Hepes was added. 3× vehicle was included in the buffer when performing agonist dose curves to define the EC80 for subsequent antagonist assays. Cells were incubated for 30 minutes at room temperature in the dark to equilibrate plate temperature. • 3. Intermediate dilution of sample stocks was performed to generate 4× sample in assay buffer. • 4. Compound agonist activity was measured on a FLIPR Tetra (MDS). Calcium mobilization was monitored for 2 minutes and 10 μL 4× sample in HBSS/20 mM Hepes was added to the cells 5 seconds into the assay.
(§5) • 1. Compound activity was analyzed using CBIS data analysis suite (ChemInnovation, CA). • 2. For agonist mode assays, percentage activity is calculated using the following formula: % Activity=100%×(mean RFU of test sample−mean RFU of vehicle control)/(mean MAX RFU control ligand −mean RFU of vehicle control). • 3. For positive allosteric mode assays, percentage modulation was calculated using the following formula: % Modulation=100%×((mean RFU of test sample−mean RFU of EC20 control)/(mean RFU of MAX control ligand −mean RFU of EC20 control)). • 4. For antagonist and negative allosteric modulation mode assays, percentage inhibition is calculated using the following formula: % Inhibition=100%×(1−(mean RFU of test sample−mean RFU of vehicle control)/(mean RFU of EC80 control−mean RFU of vehicle control)).

5-HT2A receptor [2] = target: T1, 5-HT2A receptor; test: Calcium mobilization assay, antagonist format, 5-HT2A; format: cell-based; details: @100 nM; agonist challenge at EC80
Procedure: as §1, §2, §3
(§6) • 1. For antagonist determination, cells were pre-incubated with sample followed by agonist challenge at the EC80 concentration. • 2. Intermediate dilution of sample stocks was performed to generate 3× sample in assay buffer. • 3. After dye loading, cells were removed from the incubator and 10 μL 3× sample was added. Cells were incubated for 30 minutes at room temperature in the dark to equilibrate plate temperature. Vehicle concentration was 1%. • 4. Compound antagonist activity was measured on a FLIPR Tetra (MDS). Calcium mobilization was monitored for 2 minutes and 10 μL EC80 agonist in HBSS/20 mM Hepes was added to the cells 5 seconds into the assay.
as §5
Compounds were evaluated as 5-HT2A antagonists at 100 nM (one hundred nanomolar), or may be evaluated at a higher concentration. For research comparative purposes, a literature compound—(R)-1-(5-methoxy-1H-indol-1-yl)-N,N-dimethylpropan-2-amine (AAZ-A-154) (Cell 2021, 184, 2779-2792.e18)—was included in the screening assays. Additionally, 5-hydroxytryptamine/serotonin (5-HT) was included in the screening assay as a positive control agonist, and Altanserin HCl was included as a 5-HT2A antagonist positive control.

5-HT2B receptor = target: T2, 5-HT2B receptor (Homo sapiens, UniProt P41595); test: Calcium mobilization assay, agonist format, 5-HT2B; format: cell-based; details: % activity relative to control ligand, read-out: 5-HT2B agonist efficacy @5 µM
T2 construct: host or cells: unnamed cell lines
Procedure: as §1, §2, §3, §4, §5

5-HT2C receptor = target: T3, 5-HT2C receptor (Homo sapiens, UniProt P28335); test: Calcium mobilization assay, antagonist format, 5-HT2C; format: cell-based; details: for inhibition at 10 µM: agonist challenge at EC80; for antagonism of the 5-HT2C receptor: 10 μM (ten micromolar)
T3 construct: host or cells: unnamed cell lines
T3 sequence (P28335 33-458): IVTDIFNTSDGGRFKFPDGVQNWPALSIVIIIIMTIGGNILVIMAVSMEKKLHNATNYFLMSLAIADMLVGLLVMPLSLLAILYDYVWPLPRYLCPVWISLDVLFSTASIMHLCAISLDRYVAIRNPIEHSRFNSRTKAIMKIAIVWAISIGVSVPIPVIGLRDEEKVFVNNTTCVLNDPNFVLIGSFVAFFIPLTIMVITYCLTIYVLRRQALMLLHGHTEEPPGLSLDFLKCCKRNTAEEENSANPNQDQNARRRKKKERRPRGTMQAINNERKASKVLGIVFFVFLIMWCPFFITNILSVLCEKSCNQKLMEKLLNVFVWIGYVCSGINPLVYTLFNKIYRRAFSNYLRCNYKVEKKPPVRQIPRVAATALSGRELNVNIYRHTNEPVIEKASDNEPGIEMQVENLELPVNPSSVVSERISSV
Procedure: as §1, §2, §3, §6, §5
[…] For research comparative purposes, a literature compound—(R)-1-(5-methoxy-1H-indol-1-yl)-N,N-dimethylpropan-2-amine (AAZ-A-154) (Cell 2021, 184, 2779-2792.e18)—was included in the screening assays. Additionally, 5-hydroxytryptamine/serotonin (5-HT) was included in the screening assay as a positive control agonist, and SB242084 was used in the screening assay as a literature 5-HT2C antagonist positive control. […] Compounds 2, 3 and 93 each achieved greater than 75% antagonism of the 5-HT2C receptor, with compounds 3 and 93 achieving approximately 98% and 97% antagonism, respectively.

[3] = Metabolic stability in human liver microsomes; format: in vitro ADME; details: for half-life at 1 μM / microsomal CLint at 1 μM / CLint scaled at 1 μM: liver microsomes (pooled); for half-life at 1 μM: human liver microsomes 0.5 mg/mL, test compound 1.0 μM, 37° C., NADPH; for microsomal CLint at 1 μM: intrinsic clearance = 0.693/T1/2/mg microsome protein per mL, read-out: CLint(mic); for CLint scaled at 1 μM: human, scaled from CLint(mic) with 45 mg microsomal protein/g liver and 20 g liver/kg
Procedure: The test compound at 1.0 μM in singlet, or positive controls including Testosterone (CYP3A4 substrate), Propafenone (CYP2D6 substrate) or Diclofenac (CYP2C9 substrate) was incubated with the liver microsomes (Corning, Xenotech, or other credible vendor, pooled from multiple donors) at 0.5 mg/mL, respectively. The mixture was warmed up at 37° C. for 10 minutes and the reactions were initiated by the addition of a NADPH regenerating system (˜1.0 mM). The test compound incubated with the liver microsomes at 37° C. without the NADPH regenerating system served as the negative control reaction.
The reaction samples were removed at multiple time points (such as 0, 5, 15, 30, 45 and 60 minutes) and the sample without NADPH (NCF) was removed at 60 minutes. All the samples were immediately mixed with cold acetonitrile containing internal standard (IS) to stop the reaction.
Samples were analyzed by LC/MS/MS and the disappearance of test compound were assessed base on peak area ratios of analyte/IS (no standard curve). The microsomal intrinsic clearance and T1/2 values were calculated using the following equation: […]
The microsomal intrinsic clearance and T1/2 values were calculated using the following equation: […]
In these experiments the comparator compound was a suitable reference standard. In one embodiment the comparator compound was (R)-1-(5-methoxy-1H-indol-1-yl)-N,N-dimethylpropan-2-amine.

C57BL/6J mice = test: Head-twitch response (HTR) in mice; format: in vivo, mouse; details: 10 mg/kg ip, male C57BL/6J mice, 40 min post-dose; FIGS. 2 and 3
Procedure: Head-Twitch Response (HTR). The head-twitch response assay is performed as is known to those of skill in the art using both male and female C57BL/6J mice (3 per treatment). The mice are obtained and are approximately 8 weeks old at the time of the experiments. Compounds are administered via intraperitoneal injection (5 mL/kg) using 0.9% saline as the vehicle. As a positive control, 5-MeO-DMT fumarate (2:1 amine/acid) was utilized. Behavior was videotaped, later scored by two blinded observers, and the results were averaged (Pearson correlation coefficient=0.93).
24 Male C57BL/6J mice (approximately 25 g) were group housed in a stock room. Animals were maintained under a 12 h light/dark cycle, at 23° C. with humidity controlled according to Home Office regulations.
Compounds 1, 2, 4, 151, 93, AAZ literature compound and 5-MeO-DMT (all compounds supplied as free bases) were each formulated in DMSO:saline [10:90] at a concentration of 2 mg/mL to give a dose of 10 mg/kg when administered ip in a 5 mL/kg dosing volume. […]
At T=0 h, groups of 3 mice were dosed intraperitoneally with either Vehicle, Compound 1, Compound 2, Compound 4, Compound 151, Compound 93, AAZ literature compound, or 5-MeO-DMT each at 10 mg/kg. Following dosing, mice were replaced into the observation cages and head twitch behavior was monitored for 40 min after agonist dosing.

5HT2A sensor = details: general statement on known hallucinogens and non-hallucinogenic congeners; cited from earlier work

T1 sequence (P28223 whole entry): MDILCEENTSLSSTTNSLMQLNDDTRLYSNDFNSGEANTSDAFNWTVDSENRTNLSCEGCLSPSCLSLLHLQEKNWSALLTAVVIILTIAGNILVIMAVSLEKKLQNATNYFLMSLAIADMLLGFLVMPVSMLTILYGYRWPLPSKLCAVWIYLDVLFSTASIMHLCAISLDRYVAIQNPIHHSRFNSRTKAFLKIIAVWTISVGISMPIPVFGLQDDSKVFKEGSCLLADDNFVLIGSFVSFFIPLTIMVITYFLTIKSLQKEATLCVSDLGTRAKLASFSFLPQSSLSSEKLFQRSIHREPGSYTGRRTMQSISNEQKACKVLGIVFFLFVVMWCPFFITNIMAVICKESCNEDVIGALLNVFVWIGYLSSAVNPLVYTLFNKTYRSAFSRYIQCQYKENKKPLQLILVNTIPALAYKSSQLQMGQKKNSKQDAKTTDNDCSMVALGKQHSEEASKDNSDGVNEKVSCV
T2 sequence (P41595 whole entry): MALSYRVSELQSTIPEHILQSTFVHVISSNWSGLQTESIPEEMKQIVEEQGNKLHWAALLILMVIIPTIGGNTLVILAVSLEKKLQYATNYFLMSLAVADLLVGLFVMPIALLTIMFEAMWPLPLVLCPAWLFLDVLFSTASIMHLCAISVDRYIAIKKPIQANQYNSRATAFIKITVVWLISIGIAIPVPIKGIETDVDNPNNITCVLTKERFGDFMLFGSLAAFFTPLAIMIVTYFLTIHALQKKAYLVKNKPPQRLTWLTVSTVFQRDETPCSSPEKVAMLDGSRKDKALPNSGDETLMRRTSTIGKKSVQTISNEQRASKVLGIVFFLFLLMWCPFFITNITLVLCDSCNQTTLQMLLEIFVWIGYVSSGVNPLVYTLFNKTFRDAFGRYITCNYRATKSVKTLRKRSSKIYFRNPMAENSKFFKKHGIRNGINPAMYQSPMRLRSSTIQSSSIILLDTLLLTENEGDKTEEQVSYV

Row | Structure (SMILES) | activation at 10 µM (5-HT2A receptor [1]) [%] | inhibition at 0.1 µM (5-HT2A receptor [2]) [%] | activation at 5 µM (5-HT2B receptor) [%] | inhibition at 10 µM (5-HT2C receptor) [%] | antagonism of the 5-HT2C receptor (5-HT2C receptor) | half-life at 1 μM [3] [h] | microsomal CLint at 1 μM ([3]; human liver microsomes) [µL/min/mg] | CLint scaled at 1 μM [3] [mL/min/kg] | difference in half-life and intrinsic clearance compared with reference compound (R)-1-(5-methoxy-1H-indol-1-yl)-N,N-dimethylpropan-2-amine ([3]; human liver microsomes, comment on Table 2) | head-twitch response compared to placebo (C57BL/6J mice) | activation of the 5HT2A sensor assay in agonist mode (5HT2A sensor)
1 | COc1ccn2c(CC(C)N(C)C)cnc2c1 (racemic) [Compound 91, (R/S)-1-(7-methoxyimidazo[1,2-a]pyridin-3-yl)-N,N-dimethylpropan-2-amine] | 0.6 | -3.3 | 1 | 6.1 |  |  |  |  |  |  | 
2 | COc1ccn2c(CC(C)N(C)C)ncc2c1 (racemic) [Compound 92, (R/S)-1-(7-methoxyimidazo[1,5-a]pyridin-3-yl)-N,N-dimethylpropan-2-amine] | 0.3 | 1.6 | 2 | 7.2 |  |  |  |  |  |  | 
3 | CC(Cc1ncn2cc(F)ccc12)N(C)C (racemic) [Compound 93, (R/S)-1-(6-fluoroimidazo[1,5-a]pyridin-1-yl)-N,N-dimethylpropan-2-amine] | 1.8 | 5.7 | 2.7 | 97.1 | ~97% |  |  |  |  |  | 
4 | COc1ccc2c(ccn2C[C@@H](C)N(C)C)c1 [AAZ-A-154, (R)-1-(5-methoxy-1H-indol-1-yl)-N,N-dimethylpropan-2-amine, reference compound] | 1 | 3.2 | -2.9 | 35 |  | 1.42 | 16.4 | 14.8 |  |  | 
5 | C[C@H](Cn1ccc2cc(OC3CC3)ccc21)N(C)C [Compound 1, (R)-1-(5-cyclopropoxy-1H-indol-1-yl)-N,N-dimethylpropan-2-amine] | -1.4 | -13.2 | -0.7 | 20.7 |  |  |  |  |  |  | 
6 | C[C@H](Cn1ccc2cc(S(F)(F)(F)(F)F)ccc21)N(C)C [Compound 2, (2R)-N,N-dimethyl-1-[5-(pentafluoro-λ^6-sulfanyl)indol-l-yl]propan-2-amine] | 4.4 | -0.8 | 6.4 | 76.4 |  |  |  |  |  |  | 
7 | C[C@H](Cn1ccc2c3c(ccc21)OCCC3)N(C)C [Compound 3, (R)-1-(8,9-dihydropyrano[3,2-e]indol-3(7H)-yl)-N,N-dimethylpropan-2-amine] | 9.7 | -7.3 | 1 | 98.1 | approximately 98% |  |  |  |  |  | 
8 | C[C@H](Cn1ccc2cc(S(=O)(=O)C3CC3)ccc21)N(C)C [Compound 4, (2R)-1-(5-cyclopropylsulfonylindol-1-yl)-N,N-dimethyl-propan-2-amine] | -1.5 | -9.1 | -0.6 | 6.2 |  |  |  |  |  |  | 
9 | [2H]C([2H])([2H])[C@@]([2H])(N(C)C)C([2H])([2H])n1ccc2cc(OC)ccc21 [Compound 5, (2R)-1,1,1,2,3,3-hexadeuterio-3-(5-methoxyindol-1-yl)-N,N-dimethyl-propan-2-amine] | 2 | -2.7 | 3 | 38.1 |  | 1.59 | 15 | 13.5 | significant and beneficial differences in half-life and intrinsic clearance |  | 
10 | COc1ccc2[nH]cc(CCN(C)C)c2c1 [Compound 5-MeO-DMT] |  |  |  |  |  |  |  |  |  | produced significant increases in head-twitch | activate the 5HT2A sensor assay in agonist mode
